# Test results published in patent US20140193827A1 (TEVA PHARMACEUTICAL INDUSTRIES, LTD., priority 2013, published 2014).
# System: GA-primed murine splenocytes
# Assay: ANOVA-based pattern identification method
# Type: cell-based, mouse
# Conditions: DOWN IN GA AND REF ONLY
# Source text: We sought to identify probes matching specific patterns of expression across experimental conditions using a technique that referred to as the ANOVA-based Pattern Identification Method.
# To carry out the analysis in a general manner, we computed the 6 p-values required to do pairwise comparisons of all 4 conditions for all probes using the ANOVA1 function in MATLAB. We then identified sets of probes matching the desired pattern. In the example above, probes were identified as being only affected by PG if their 6 pairwise comparison pvalues matched the following pattern (pGA-PG<0.05, pPG-reference standard<0.05, pPG-Medium<0.05, pGAMedium>0.05, pGA-reference standard>0.05, preference standard-Medium>0.05).
substance,measurement,value
glatiramer acetate [GA],AA536749 expression level,8.75
same,C5F3R expression level,5.814
same,CD33 expression level,6.382
same,CD63 expression level,7.484
same,CLEC4E expression level,6.76
same,CXCR4 expression level,9.154
same,GAS7 expression level,6.685
same,GPR97 expression level,6.1434
same,KLC4 expression level,7.786
same,LOC385923 expression level,7.651
same,LOC386268 expression level,6.655
same,LOC386288 expression level,7.006
same,LOC386360 expression level,9.445
same,TMEM38B expression level,8.3
same,average expression of 1100001G20RIK,6.239
same,average expression of 1110014N23RIK,9.678
same,average expression of 1200002N14RIK,6.896
same,average expression of 1300010F03R1K,6.604
same,average expression of 1300010F03RIK,6.764
same,average expression of 1700073E17RIK,5.669
same,average expression of 1810009N02RIK,8.11
same,average expression of 1810030N24RIK,6.84
same,average expression of 2010001M09RIK,13.2
same,average expression of 2310040G07RIK,5.712
same,average expression of 2310067B10RIK,7.502
same,average expression of 2310079N02RIK,9.098
same,average expression of 2510022D24RIK,8.141
same,average expression of 2610024M03RIK,6.018
same,average expression of 2610028H07RIK,10.1
same,average expression of 2810402K13RIK,8.169
same,average expression of 2810422O20RIK,7.018
same,average expression of 2900079J23RIK,5.766
same,average expression of 3110004L20RIK,5.934
same,average expression of 3110082D06RIK,5.99
same,average expression of 4930519F16RIK,5.617
same,average expression of 4930572J05RIK,10.41
same,average expression of 5031439G07RIK,7.967
same,average expression of 5330417C22RIK,5.64
same,average expression of 5830415F09RIK,6.998
same,average expression of 6230425C21RIK,7.021
same,average expression of 6430511F03,6.247
same,average expression of 6430526N21RIK,7.232
same,average expression of 6720480F11RIK,5.641
same,average expression of 6720486H14RIK,5.584
same,average expression of 9030025P20RIK,8.593
same,average expression of 9330152L17,5.75
same,average expression of A430043M19RIK,6.108
same,average expression of A630038P11RIK,5.552
same,average expression of A730017D01RIK,6.519
same,average expression of A930014P08RIK,5.554
same,average expression of ABCC4,7.757
same,average expression of ACBD4,9.154
same,average expression of ACP2,6.811
same,average expression of ACTR3B,6.47
same,average expression of ADAM11,5.629
same,average expression of AGAP1,5.989
same,average expression of ANKRD13A,10.24
same,average expression of APP,6.949
same,average expression of ARHGAP22,6.192
same,average expression of ATP6V1B2,10.4
same,average expression of AW011738,6.2494
same,average expression of B130002B06RIK,5.7347
same,average expression of B930048N13RIK,5.895
same,average expression of B930049N04RIK,5.592
same,average expression of B930097H17RIK,5.792
same,average expression of BC014795,8.05
same,average expression of BC065397,6.46
same,average expression of BC066107,6.578
same,average expression of BMP3,5.623
same,average expression of BRD2,11.26
same,average expression of C330019G07RIK,6.738
same,average expression of C430003P19RIK,9.571
same,average expression of CAGE1,5.862
same,average expression of CASP1,11.51
same,average expression of CBLC,5.866
same,average expression of CD151,8.029
same,average expression of CENTG3,6.784
same,average expression of CEPT1,10.22
same,average expression of CFB,6.244
same,average expression of CLEC4A1,6.263
same,average expression of CLEC5A,5.873
same,average expression of CNTNAP3,5.796
same,average expression of COgeneric,8.105
same,average expression of CREG1,6.616
same,average expression of CRTAC1,5.925
same,average expression of CTSL,5.744
same,average expression of D030051N19RIK,8.287
same,average expression of D030072B18RIK,5.56
same,average expression of DGKQ,6.895
same,average expression of DLG3,7.023
same,average expression of DNMT3L,6.042
same,average expression of DUSP6,5.768
same,average expression of E330023P07RIK,5.77
same,average expression of EG434402,9.171
same,average expression of EG633640,6.136
same,average expression of ELL,9.635
same,average expression of EPB4.1L3,5.896
same,average expression of EPN3,5.711
same,average expression of ERCC4,8.15
same,average expression of FA2H,5.977
same,average expression of FBXL20,7.805
same,average expression of FCMD,6.473
same,average expression of FOS,6.875
same,average expression of FRMPD1,5.584
same,average expression of GAA,8.021
same,average expression of GALGT1,7.448
same,average expression of GALNT10,8.096
same,average expression of GDPD1,6.392
same,average expression of GM498,5.674
same,average expression of GPS2,9.303
same,average expression of GSTM2,5.945
same,average expression of GTPBP1,9.185
same,average expression of HMOX1,6.561
same,average expression of HRSP12,8.037
same,average expression of IGK-V33,9.992
same,average expression of IGLC2_J00595—IG_LAMBDA—CONSTANT_2_14,13.7
same,average expression of IRAK3,9.019
same,average expression of IRF3,7.749
same,average expression of IVD,9.212
same,average expression of KCNC4,5.832
same,average expression of KRT39,5.551
same,average expression of KRTAP5-4,5.651
same,average expression of LOC193563,5.759
same,average expression of LOC238836,13.84
same,average expression of LOC243025,6.623
same,average expression of LOC327767,5.978
